Measurements taken from US9951088B2, “D2 receptor modulators and methods of use thereof in the treatment of diseases and disorders” (SUNOVION PHARMACEUTICALS INC., priority 2012, dated 2018).

Columns and labels:
[1] = molecular target: T1, long isoform of human D2 receptor (Homo sapiens, UniProt P14416); assay: Arrestin Antagonist Assay (DRD2L PathHunter CHO-K1 cells, vs EC80 dopamine); conditions: for Emax: CHO-K1, read-out: β-arrestin (antagonist mode) Imax
Protocol: Cell Lines: Activities of the compounds were assessed using a Chinese Hamster Ovary (CHO—K1) cell line that recombinantly expressed the long isoform of human D2 receptor (DRD2L PathHunter cells). The D2 receptor DNA sequence was modified to contain a “ProLink” at its C-terminus which allowed complementation with an “enzyme acceptor” (EA)-tagged β-arrestin protein. The recruitment of the O-arrestin by the D2 receptor led to complementation of the ProLink and EA and formation of active β-galactosidase which generated a D2-specific signal that was measured.
Arrestin Antagonist Assay: One day prior to testing, a vial of high density stock of DRD2L PathHunter cells was thawed, and 1×10^7 cells diluted into 40 mL of growth media (Ham's F12/10% HI FBS/1% PSG). 20 μL cells per well were seeded directly into assay plates, and the plates were allowed to rest for 1 h at RT before incubating in a plate incubator overnight.
The plate was incubated for 30 min at 37° C. 15 μL PathHunter detection reagent was added to each well of the assay plate, which was then covered and incubated for 1 h at RT. The plate was read on an Envision reader using the Luminescence protocol, and the data were exported for analysis.
The IC50 values (concentration producing a half-maximal inhibitory response) were determined by non-linear regression analysis of the concentration-response curves.

[2] = molecular target: T1, long isoform of human D2 receptor; assay: cAMP HTRF Agonist Assay (DRD2L PathHunter CHO-K1 cells, forskolin-stimulated); conditions: for Emax: CHO-K1, read-out: cAMP (agonist mode) Emax
Protocol: Cell Lines: Activities of the compounds were assessed using a Chinese Hamster Ovary (CHO—K1) cell line that recombinantly expressed the long isoform of human D2 receptor (DRD2L PathHunter cells). The D2 receptor DNA sequence was modified to contain a “ProLink” at its C-terminus which allowed complementation with an “enzyme acceptor” (EA)-tagged β-arrestin protein. The recruitment of the O-arrestin by the D2 receptor led to complementation of the ProLink and EA and formation of active β-galactosidase which generated a D2-specific signal that was measured. The cAMP assay was measured in the same D2-expressing cell line. The D2 receptor inhibited cAMP formation so that the basal levels of cAMP were increased by the addition of an adenylate cyclase stimulator, forskolin.
cAMP HTRF Agonist Assay: Two days prior to testing, a vial of high density stock of DRD2L PathHunter cells was thawed, and cells were diluted into 10 mL of growth media (Ham's F12/10% HI FBS/1% PSG) and used to seed a T225 flask containing 50 mL of growth media. Cells were cultured for 2 days.
On the day of the assay, cells were dissociated in 5 mL cell dissociation buffer (enzyme free—Invitrogen) for 10-15 minutes at 37° C. Dissociated cells were diluted with 10 mL of growth media and counted. Cell counts were routinely ˜2×10^7 per T225. Cells were then pelleted at 1500 rpm for 5 min. Supernatant was aspirated, and cells were re-suspended in HBSS/20 mM Hepes, pH 7.4 to a cell density of 1×10^6/mL.
cAMP levels were determined using the Cisbio HTRF method. HRTF reagents (cAMP-HTRF acceptor fluorophore (d2) conjugate and cryptate-labeled anti-cAMP antibody) were prepared according to maunfacturers instructions. 5 μL of each were added to each well of an assay plate and incubated for 1 h at RT. The plate was then read on an Envision reader using the HTRF protocol, and data were exported for analysis.
The agonist Emax results were expressed as a percent of the dopamine control response ((measured specific response/control specific agonist response)×100) obtained in the presence of test article. The EC50 values (concentration producing a half-maximal specific response) were determined by non-linear regression analysis of the concentration-response curves.

[3] = molecular target: T1, long isoform of human D2 receptor; assay: Arrestin Agonist Assay (DRD2L PathHunter CHO-K1 cells, β-arrestin recruitment); conditions: for Emax: CHO-K1, read-out: β-arrestin (agonist mode) Emax

T1 sequence (P14416 whole entry, canonical isoform): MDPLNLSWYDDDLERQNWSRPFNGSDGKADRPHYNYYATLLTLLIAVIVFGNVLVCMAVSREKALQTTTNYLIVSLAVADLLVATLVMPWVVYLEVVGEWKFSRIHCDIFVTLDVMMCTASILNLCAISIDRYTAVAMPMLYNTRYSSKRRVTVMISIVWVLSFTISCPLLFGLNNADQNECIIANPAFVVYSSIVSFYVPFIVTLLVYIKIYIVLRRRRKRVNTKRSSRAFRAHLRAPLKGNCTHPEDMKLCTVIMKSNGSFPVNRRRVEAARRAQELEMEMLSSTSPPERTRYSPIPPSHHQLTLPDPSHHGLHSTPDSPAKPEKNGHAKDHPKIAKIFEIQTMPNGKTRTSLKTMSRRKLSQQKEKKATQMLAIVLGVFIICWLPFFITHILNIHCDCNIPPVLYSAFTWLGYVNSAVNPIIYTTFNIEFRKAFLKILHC

Compound | IC50 [1] | Emax [1] | IC50 [2] | Emax [2] | EC50 [3] | Emax [3]
N#Cc1cccc2c1CN(CCCCOc1ccc3c(n1)NC(=O)CC3)CC2 [Compound 80, 2-(4-((7-oxo-5,6,7,8-tetrahydro-1,8-naphthyridin-2-yl)oxy)butyl)-1,2,3,4-tetrahydroisoquinoline-8-carbonitrile] | 100 to 1000 nM | > 75% | > 10000 nM | < 10% | > 10000 nM | < 10%
CCC(=O)Nc1cccc(OCCCCN2CCc3ccccc3C2)n1 [Compound 41, N-(6-(4-(3,4-dihydroisoquinolin-2(1H)-yl)butoxy)pyridin-2-yl)-propionamide] | 100 to 1000 nM | > 75% | > 10000 nM | < 10% | > 10000 nM | < 10%
O=c1ccc2ccc(OCCCCN3CCc4sccc4C3)nc2[nH]1 [Compound 53, 7-(4-(6,7-dihydrothieno[3,2-c]pyridin-5(4H)-yl)butoxy)-1,8-naphthyridin-2(1H)-one] | 10 to 100 nM | > 75% | < 10 nM | 10 to 25% | > 10000 nM | < 10%
Clc1cccc2c1CCN(CCCCOc1cccc(-c3cc[nH]n3)n1)C2 [Compound 45, 2-(4-((6-(1H-pyrazol-3-yl)pyridin-2-yl)oxy)butyl)-5-chloro-1,2,3,4-tetrahydroisoquinoline] | > 10000 nM | < 10% | < 10 nM | > 75% | 10 to 100 nM | > 75%
COc1cccnc1N1CCN(CCCCOc2ccc3cccc(O)c3n2)CC1 [Compound 9, 2-(4-(4-(3-methoxypyridin-2-yl)piperazin-1-yl)butoxy)quinolin-8-ol] | 10 to 100 nM | > 75% | < 10 nM | 25 to 50% | > 10000 nM | < 10%
Oc1cccc2ccc(OCCCCN3CCc4sccc4C3)nc12 [Compound 18, 2-(4-(6,7-dihydrothieno[3,2-c]pyridin-5(4H)-yl)butoxy)quinolin-8-ol] | 1000 to 10000 nM | > 75% | > 10000 nM | < 10% | > 10000 nM | < 10%
O=C1NCCc2ccc(OCCCCN3CCc4ccccc4C3)nc2N1 [Compound 83, 8-(4-(3,4-dihydroisoquinolin-2(1H)-yl)butoxy)-4,5-dihydro-1H-pyrido[2,3-d][1,3]diazepin-2(3H)-one] | 10 to 100 nM | > 75% | > 10000 nM | < 10% | > 10000 nM | < 10%
O=c1ccc2ccc(OCCCCN3CCc4cc(C(F)(F)F)ccc4C3)nc2[nH]1 [Compound 58, 7-(4-(6-(trifluoromethyl)-3,4-dihydroisoquinolin-2(1H)-yl)butoxy)-1,8-naphthyridin-2(1H)-one] | 10 to 100 nM | > 75% | < 10 nM | 25 to 50% | < 10 nM | 10 to 25%
O=C1NCCc2ccc(OCCCCN3CCc4sccc4C3)nc2N1 [Compound 86, 8-(4-(6,7-dihydrothieno[3,2-c]pyridin-5(4H)-yl)butoxy)-4,5-dihydro-1H-pyrido[2,3-d][1,3]diazepin-2(3H)-one] | 10 to 100 nM | > 75% | > 10000 nM | < 10% | > 10000 nM | < 10%
O=C1CCc2ccc(OCCCCN3CCc4nn(-c5ccccc5)cc4C3)cc2N1 [Compound 30, 7-(4-(2-phenyl-6,7-dihydro-2H-pyrazolo[4,3-c]pyridin-5(4H)-yl)butoxy)-3,4-dihydroquinolin-2(1H)-one] | 10 to 100 nM | > 75% | 10 to 100 nM | 25 to 50% | < 10 nM | 10 to 25%
Oc1cccc2ccc(OCCCCN3CCc4ccccc4C3)nc12 [Compound 12, 2-(4-(3,4-dihydroisoquinolin-2(1H)-yl)butoxy)quinolin-8-ol] | 1000 to 10000 nM | > 75% | > 10000 nM | < 10% | 10 to 100 nM | 10 to 25%
N#Cc1cccc2c1CN(CCCCOc1ccc3ccc(=O)[nH]c3n1)CC2 [Compound 64, 2-(4-((7-oxo-7,8-dihydro-1,8-naphthyridin-2-yl)oxy)butyl)-1,2,3,4-tetrahydroisoquinoline-8-carbonitrile] | 10 to 100 nM | > 75% | < 10 nM | 25 to 50% | < 10 nM | 10 to 25%
c1ccc(N2CCN(CCCCOc3ccc4cn[nH]c4c3)CC2)nc1 [Compound 94, 6-(4-(4-(pyridin-2-yl)piperazin-1-yl)butoxy)-1H-indazole] | > 10000 nM | < 10% | < 10 nM | > 75% | < 10 nM | > 75%
Cn1cc2c(n1)CCN(CCCCOc1ccc3c(c1)NC(=O)CC3)C2 [Compound 24, 7-(4-(2-methyl-6,7-dihydro-2H-pyrazolo[4,3-c]pyridin-5(4H)-yl)butoxy)-3,4-dihydroquinolin-2(1H)-one] | 1000 to 10000 nM | 25 to 50% | 10 to 100 nM | > 75% | 100 to 1000 nM | 25 to 50%
O=C1CCc2ccc(OCCCCN3CCc4nn(-c5ccccc5F)cc4C3)cc2N1 [Compound 35, 7-(4-(2-(2-fluorophenyl)-6,7-dihydro-2H-pyrazolo[4,3-c]pyridin-5(4H)-yl)butoxy)-3,4-dihydroquinolin-2(1H)-one] | 10 to 100 nM | > 75% | > 10000 nM | < 10% | > 10000 nM | < 10%
COc1ccc2c(c1)CCN(CCCCOc1ccc3cccc(O)c3n1)C2 [Compound 13, 2-(4-(6-methoxy-3,4-dihydroisoquinolin-2(1H)-yl)butoxy)quinolin-8-ol] | 1000 to 10000 nM | > 75% | > 10000 nM | < 10% | < 10 nM | 10 to 25%
O=C1CCc2ccc(OCCCCN3CCc4nn(-c5ccccn5)cc4C3)cc2N1 [Compound 38, 7-(4-(2-(pyridin-2-yl)-6,7-dihydro-2H-pyrazolo[4,3-c]pyridin-5(4H)-yl)butoxy)-3,4-dihydroquinolin-2(1H)-one] | 10 to 100 nM | 25 to 50% | < 10 nM | 50 to 75% | < 10 nM | 25 to 50%
CCOc1cccnc1N1CCN(CCCCOc2ccc3cccc(O)c3n2)CC1 [Compound 10, 2-(4-(4-(3-ethoxypyridin-2-yl)piperazin-1-yl)butoxy)quinolin-8-ol] | 10 to 100 nM | > 75% | < 10 nM | 25 to 50% | < 10 nM | 10 to 25%
Oc1cccc2ccc(OCCCCN3CCN(c4ccccn4)CC3)nc12 [Compound 8, 2-(4-(4-(pyridin-2-yl)piperazin-1-yl)butoxy)quinolin-8-ol] | > 10000 nM | < 10% | < 10 nM | > 75% | 10 to 100 nM | > 75%
O=C1NCCc2ccc(OCCCCN3CCc4cc(Cl)ccc4C3)nc2N1 [Compound 85, 8-(4-(6-chloro-3,4-dihydroisoquinolin-2(1H)-yl)butoxy)-4,5-dihydro-1H-pyrido[2,3-d][1,3]diazepin-2(3H)-one] | 10 to 100 nM | > 75% | > 10000 nM | < 10% | > 10000 nM | < 10%
O=C1NCCc2ccc(OCCCCN3CCc4nn(-c5ccccn5)cc4C3)nc2N1 [Compound 90, 8-(4-(2-(pyridin-2-yl)-6,7-dihydro-2H-pyrazolo[4,3-c]pyridin-5(4H)-yl)butoxy)-4,5-dihydro-1H-pyrido[2,3-d][1,3]diazepin-2(3H)-one] | > 10000 nM | < 10% | < 10 nM | > 75% | 10 to 100 nM | > 75%
CCn1cc2c(n1)CCN(CCCCOc1ccc3c(c1)NC(=O)CC3)C2 [Compound 34, 7-(4-(2-ethyl-6,7-dihydro-2H-pyrazolo[4,3-c]pyridin-5(4H)-yl)butoxy)-3,4-dihydroquinolin-2(1H)-one] | > 10000 nM | < 10% | 100 to 1000 nM | 50 to 75% | 100 to 1000 nM | 50 to 75%
O=C1CCc2ccc(OCCCCN3CCc4cc(F)ccc4C3)nc2N1 [Compound 72, 7-(4-(6-fluoro-3,4-dihydroisoquinolin-2(1H)-yl)butoxy)-3,4-dihydro-1,8-naphthyridin-2(1H)-one] | 10 to 100 nM | > 75% | > 10000 nM | < 10% | > 10000 nM | < 10%
CC(=O)Nc1cccc(OCCCCN2CCc3ccccc3C2)n1 [Compound 40, N-(6-(4-(3,4-dihydroisoquinolin-2(1H)-yl)butoxy)pyridin-2-yl)acetamide] | 100 to 1000 nM | > 75% | > 10000 nM | < 10% | > 10000 nM | < 10%
Oc1cccc2ccc(OCCCCN3CCc4cccc(C(F)(F)F)c4C3)nc12 [Compound 21, 2-(4-(8-(trifluoromethyl)-3,4-dihydroisoquinolin-2(1H)-yl)butoxy)quinolin-8-ol] | 100 to 1000 nM | > 75% | < 10 nM | 25 to 50% | > 10000 nM | < 10%
Oc1cccc2ccc(OCCCCN3CCc4c(Cl)cccc4C3)nc12 [Compound 20, 2-(4-(5-chloro-3,4-dihydroisoquinolin-2(1H)-yl)butoxy)quinolin-8-ol] | > 10000 nM | < 10% | 10 to 100 nM | 50 to 75% | 100 to 1000 nM | > 75%
